Experimental data from publication PMC10469688, “Comparative pharmacokinetics and safety evaluation of high dosage regimens of Andrographis paniculata aqueous extract after single and multiple oral administration in healthy participants” (Frontiers in Pharmacology, 2023).
Where two headings read alike, the source gives them in different places.

Experiments:
[1] = Cumulative urinary excretion after single oral administration of A. paniculata aqueous extract capsules in healthy participants; assay type: in vivo, human; conditions: for Cumulative urine: urine T 0–48 h
Procedure: (§1) An opened-label, two-dosage, single- and multiple-oral dosing, single center, phase I safety and pharmacokinetic study was conducted in healthy participants while they were under a fasting condition. […] Two weeks prior to the beginning of the clinical study, the volunteers were advised to abstain from other dietary supplements, herbal products, or any concomitant medicines. During the period of the study, no other medications were allowed. All participants fasted overnight for at least 8 h before drug administration. The study conducted a single-dose investigation on day 1 by oral administering A. paniculata extract capsules once in both groups. Twelve participants in group 1 received 3 capsules orally (equivalent to 60 mg of andrographolide) with 240 mL of water, while another twelve participants in group 2 received 6 capsules (equivalent to 120 mg of andrographolide). This was followed by serial blood sampling for up to 24 h after dosing. For blood collection, 6 mL of venous blood in EDTA tube was collected via a forearm vein catheter at each time point including pre-dose (0 h), and post-dose after oral administration (T 0.167, 0.333, 0.5, 0.75, 1, 1.5, 2, 4, 6, 8, 10, 12 and 24 h). Subsequently, observation of elimination continued until 48 h post-dose to ensure complete excretion of the major active diterpenoids through urine. Urine samples were collected at day 0 (the day prior to dosing) and day 1–2 (T 0–4, 4–8, 8–12,12–24, 24–32, 32–40, and 40–48 h after dosing). The study then proceeded to investigate multiple doses in both groups by administering continuous oral doses from day 3 until the morning of day 5. (dosing at T48, 56, 64, 72, 80, 88, and 96 h). In group 1, three capsules were administered orally before meals, three times a day (3 × 3 capsules at 8-h intervals, calculated as 180 mg/day of andrographolide); whereas in group 2, six capsules were administered daily, three times a day (6 × 3 capsules at 8-h intervals, calculated as 360 mg/day of andrographolide). For serial blood sampling of multiple doses, 6 mL of blood samples were collected starting in the morning of day 5 (sampling timepoints T 96, 96.167, 96.333, 96.5, 96.75, 97, 97.5, 98, 100, 102, and 104 h post dose).
(§2) All collected blood samples were centrifuged at 4,000 rpm, 4^οC, for 5 min. Plasma was collected and stored in cryotubes at −70^οC until analysis. Urine was kept as 10 mL aliquot samples at each time point and stored at −70^οC until analysis. Extraction was performed by protein precipitation method as previously reported ([Songvut et al., 2023]). Briefly, 50 µL of either a plasma or urine sample was mixed with 200 µL of methanol containing an internal standard (IS) of digoxin (50 ng/mL). Pretreated samples were vortexed for 10 min and were then centrifuged at 12,000 rpm, 4°C, for 10 min. The supernatants were filtered through a 0.2 µm PVDF membrane and were subsequently transferred to vials for HPLC-MS/MS analysis.
(§3) Hydrolysis of the glucuronidated and sulfated conjugates was conducted by enzymatic incubation as our previous published method ([Songvut et al., 2023]). To analyze the metabolic conjugations, 50 μL of either a plasma or urine sample was pre-incubated at 37^οC with 50 µL of either of β-glucuronidase in sodium phosphate buffer (pH 6.8) for 30 min, or sulfatase in sodium acetate buffer (pH 5) for 2 h. IS (50 ng/mL) was then added along with 150 μL of methanol to precipitate protein. The extracted samples were then vortexed and centrifuged at 12,000 rpm, 4^οC, for 10 min. The supernatants were collected by filtering through a 0.2-µm PVDF membrane before HPLC-MS/MS injection.
(§4) Analysis for the concentrations of targeted compounds in plasma and urine samples were carried out using HPLC-MS/MS at the Laboratory of Pharmacology, Chulabhorn Research Institute, Bangkok, Thailand. The quantitative determination was performed according to a previously validated method ([Songvut et al., 2023]). […]

[2] = design: method as in Panossian et al., 2000; conditions: previous pharmacokinetic studies; ref Panossian et al., 2000; cited from earlier work
[3] = Plasma pharmacokinetics after single and multiple oral administration of A. paniculata aqueous extract capsules in healthy participants (HPLC-MS/MS, non-compartmental analysis); assay type: in vivo, human; conditions: for CL/F / AUC(0-t) / MRT / Vd/F / half-life / Tmax / AUC(0-inf) / Cmax: human; for CL/F / AUC(0-t) / MRT / Vd/F / half-life / Tmax / AUC(0-inf): plasma; for MRT: read-out: MRT; for Vd/F: read-out: Vd/F; for Tmax: read-out: Tmax; for AUC(0-inf): read-out: AUC(0-inf); for Cmax: read-out: Cmax
Procedure: as §1, §2, §3, §4

[4] = single oral dose equivalent to 60 mg andrographolide, n = 12, mean ± SD
[5] = single oral dose equivalent to 120 mg andrographolide, n = 11, mean ± SD
[6] = multiple oral doses 60 mg × 3 times/day of andrographolide, n = 12, mean ± SD
[7] = multiple oral doses 60 mg × 3 times/day of andrographolide, n = 12, mean ± SD, read-out: AUC(0–8h)
[8] = multiple oral doses 60 mg × 3 times/day of andrographolide, n = 12, median [IQR]
[9] = multiple oral doses 120 mg × 3 times/day of andrographolide, n = 11, mean ± SD
[10] = multiple oral doses 120 mg × 3 times/day of andrographolide, n = 11, mean ± SD, read-out: AUC(0–8h)
[11] = multiple oral doses 120 mg × 3 times/day of andrographolide, n = 11, median [IQR]
[12] = single oral dose equivalent to 60 mg andrographolide, n = 12, mean ± SD, read-out: AUC(0–24h)
[13] = single oral dose equivalent to 60 mg andrographolide, n = 12, median [IQR]
[14] = single oral dose equivalent to 120 mg andrographolide, n = 11, mean ± SD, read-out: AUC(0–24h)
[15] = single oral dose equivalent to 120 mg andrographolide, n = 11, median [IQR]
[16] = multiple oral doses 60 mg × 3 times/day of andrographolide, plasma T 0–8 h, n = 12, mean ± SD
[17] = multiple oral doses 120 mg × 3 times/day of andrographolide, plasma T 0–8 h, n = 11, mean ± SD
[18] = single oral dose equivalent to 60 mg andrographolide, plasma T 0–24 h, n = 12, mean ± SD
[19] = single oral dose equivalent to 120 mg andrographolide, plasma T 0–24 h, n = 11, mean ± SD

Cumulative urine [1, 4]	Cumulative urine [1, 5]	CL/F [3, 6]	AUC(0-t) [3, 7]	MRT [3, 6]	Vd/F [3, 6]	half-life [3, 8]	Tmax [3, 8]	CL/F [3, 9]	AUC(0-t) [3, 10]	MRT [3, 9]	Vd/F [3, 9]	half-life [3, 11]	Tmax [3, 11]	CL/F [3, 4]	AUC(0-inf) [3, 4]	AUC(0-t) [3, 12]	MRT [3, 4]	Vd/F [3, 4]	half-life [3, 13]	SMILES	further results
372 ± 159 µg	1,193±553 μg	75 mL/min/kg	195 ± 24 ng·h/mL	4.3 ± 0.99 h	18 ± 8 L/kg	2.3 h	0.65 h	91.7 mL/min/kg	345 ± 48.8 ng·h/mL	3.4 ± 0.45 h	14.7 ± 3.7 L/kg	1.7 h	0.8 h	81.7 mL/min/kg	210 ± 25.4 ng·h/mL	210 ± 25.4 ng·h/mL	6 ± 0.45 h	9 ± 1.66 L/kg	1.3 h	C=C1CC[C@@H]2[C@](C)(CO)[C@H](O)CC[C@@]2(C)[C@@H]1C/C=C1/C(=O)OC[C@H]1O [Andrographolide, andrographolide]	Amount excreted in urine on doubling the oral dose ([1]; 60 vs 120 mg of andrographolide): nearly corresponding doubling; Tmax [2]: 1.36 h; Tmax [3, 13]: 0.8 h; CL/F [3, 5]: 100 mL/min/kg; AUC(0-inf) [3, 5]: 345 ± 63.5 ng·h/mL; AUC(0-t) [3, 14]: 345 ± 63.5 ng·h/mL; MRT [3, 5]: 5.3 ± 0.63 h; Vd/F [3, 5]: 10.8 ± 1.6 L/kg; half-life [3, 15]: 1.2 h; Tmax [3, 15]: 0.8 h; Cmax [3, 16]: 85.9 ± 19 ng/mL; Cmax [3, 17]: 172 ± 54.4 ng/mL; Cmax [3, 18]: 72.1 ± 28.7 ng/mL; Cmax [3, 19]: 112 ± 33.4 ng/mL
24.0 ± 18.1 µg	66.7 ± 29.3 µg	65 mL/min/kg	69.7 ± 12.9 ng·h/mL	1.7 ± 0.22 h	3.4 ± 0.78 L/kg	0.6 h	1 h	71.7 mL/min/kg	128 ± 29.1 ng·h/mL	1.9 ± 0.18 h	1.2 ± 0.29 L/kg	0.19 h	1 h	36.7 mL/min/kg	41 ± 4.9 ng·h/mL	41 ± 4.9 ng·h/mL	1.8 ± 0.33 h	0.74 ± 0.16 L/kg	0.23 h	C=C1CC[C@@H]2[C@](C)(CO[C@@H]3O[C@H](CO)[C@@H](O)[C@H](O)[C@H]3O)CCC[C@@]2(C)[C@@H]1CCC1=CCOC1=O [Neoandrographolide, neoandrographolide]	Detectability as conjugated metabolites in plasma ([3]; glucuronide and sulfate derivatives): less detectable; AUC(0-inf) [3, 6]: 69.7 ± 12.9 ng·h/mL; AUC(0-inf) [3, 9]: 128 ± 29.1 ng·h/mL; Tmax [3, 13]: 0.9 h; CL/F [3, 5]: 88.3 mL/min/kg; AUC(0-inf) [3, 5]: 104 ± 22.6 ng·h/mL; AUC(0-t) [3, 14]: 104 ± 22.6 ng·h/mL; MRT [3, 5]: 2.2 ± 0.22 h; Vd/F [3, 5]: 1.5 ± 0.33 L/kg; half-life [3, 15]: 0.19 h; Tmax [3, 15]: 0.8 h; Cmax [3, 16]: 34.8 ± 6.3 ng/mL; Cmax [3, 17]: 60.7 ± 12.2 ng/mL; Cmax [3, 18]: 24.4 ± 5.6 ng/mL; Cmax [3, 19]: 50.4 ± 19.2 ng/mL
